Experimental findings from PubChem BioAssay (NCI) are described below.

Assay in all cases: NCI anticancer screen, dose series, 48 h
In test [1] the test system is SNB-75 CNS.
Test [2] has as its system RXF 393 renal.
Test [3] relates to OVCAR-4 ovarian.
The subject of test [4] is UACC-257 melanoma.
The subject of test [5] is MDA-MB-231 breast.
In test [6] the test system is MOLT-4 leukemia.
For test [7], the system named is MALME-3M melanoma.
Test [8] deals with K-562 leukemia.
Test [9] has as its system SK-MEL-2 melanoma.
Test [10] relates to HS 578T breast.
Test [11] concerns MCF7 breast.
Test [12] relates to EKVX NSCLC.
For test [13], the system named is COLO 205 colon.
The subject of test [14] is RPMI-8226 leukemia.
Test [15] has as its system NCI/ADR-RES ovarian.
Test [16] relates to BT-549 breast.
Test [17] deals with NCI-H460 lung.
The subject of test [18] is HL-60(TB) leukemia.
Test [19] deals with HCC-2998 colon.
Test [20] has as its system IGROV1 ovarian.

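48-hour exposure; five concentrations; linearly interpolated endpoints. TGI denotes the concentration required for complete inhibition of growth.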

Consider `O=C(O)c1cnccc1-c1cc(=O)[nH]n1-c1ccccc1`, for which the TGI in [1] was more than 100 µM; in [2], more than 100 µM; in test [3], more than 100 µM; in test [4], more than 100 µM; in test [5], more than 100 µM; in [6], more than 77.6 µM. The TGI in test [7], in [8], in test [9], in test [10], in test [11] and in [12] was more than 100 µM in each case. The TGI in test [13] is 34.3 µM; in [14], more than 100 µM; in [15], more than 100 µM; in test [16], more than 100 µM; in test [17], more than 100 µM; in test [18], more than 87 µM. Further, the TGI was more than 63.2 µM in [19] and more than 100 µM in [20].

On to `COc1cccc2c3cccc(OC)c3c3[nH]cnc3c12`, for which the TGI came to 8.58 µM in test [1]; 3.42 µM in test [2]; 12 µM in test [3]; 36.1 µM in test [4]; 4.11 µM in test [5]; 6.27 µM in test [6]. The TGI stood at 7.81 µM in test [7]; 7.16 µM in [8]; 34.3 µM in [9]; 20.5 µM in test [10]; 2.81 µM in test [11]; 27.9 µM in test [12]. Further, the TGI was 30.1 µM in [13]; 5.67 µM in [14]; 9.42 µM in [15]; 31.6 µM in test [16]; 3.26 µM in test [17]; 2.38 µM in test [18]. Also, the TGI was 11.9 µM in [19] and 3.46 µM in [20].

On to `CCOC(=O)c1c(N2CCOCC2)[nH]c(=O)c(C(c2c(O)c(C(=O)OCC)c(N3CCOCC3)[nH]c2=O)C(C)C)c1O`, for which the TGI in test [1] is 69.7 µM; in [2], more than 100 µM; in test [3] it was more than 100 µM; in test [4], more than 100 µM; in test [5], more than 100 µM; in test [6], more than 100 µM. Besides, the TGI in test [7], in [8], in test [9], in [10], in [11] and in test [12] was more than 100 µM throughout. Besides, the TGI in [13], in [14], in test [15], in [16], in test [17] and in test [18] was more than 100 µM in each case. Further, the TGI in test [19] was more than 100 µM.

On to `C/C(=N/NC(=S)N1CCCCCC1)c1ccccc1O`, for which the TGI is 69.1 µM in test [1]; more than 93 µM in [2]; more than 33.9 µM in test [3]; 30.9 µM in test [4]; more than 66.8 µM in [5]; 24.4 µM in test [6]. Moreover, the TGI in test [7] is more than 49.8 µM; in test [8] it was more than 100 µM; in test [9], more than 100 µM; in test [10], more than 100 µM; in test [11], more than 100 µM; in test [12] it was more than 100 µM. For the same compound, the TGI in [13] is more than 49.3 µM; in [14] it was 40.4 µM; in test [15] it was 8.35 µM; in test [16], more than 100 µM; in [17], 25.2 µM; in test [18], 7.8 µM. Besides, the TGI was more than 42.1 µM in test [19] and more than 39.7 µM in test [20].

Take `CCOC(=O)c1c(Nc2ccccc2)sc2cccnc12`: the TGI in test [1] was 59.3 µM; in test [2], more than 86.6 µM; in [3], 79.9 µM; in test [4], 51.1 µM; in test [5], more than 83.5 µM; in test [6], 55.9 µM. Also, the TGI was 53.4 µM in test [7]; 82.8 µM in test [8]; 49.5 µM in test [9]; more than 69.1 µM in test [10]; 59.5 µM in [11]; 59 µM in [12]. The TGI in test [13] was more than 60.5 µM; in test [14] it was 58.3 µM; in test [15], 67.8 µM; in test [16] it was 58.8 µM; in test [17], more than 88.8 µM; in [18] it was 51.3 µM. Moreover, the TGI in test [19] was 77.8 µM; in test [20] it was 47.4 µM.

For `COc1ccc(Cc2nc3cc(Cl)ccc3o2)cc1`, the TGI is 59.1 µM in [1]; 70.2 µM in test [2]; more than 100 µM in [3]; 70.6 µM in test [4]; more than 100 µM in test [5]; more than 100 µM in test [6]. Also, the TGI is more than 100 µM in [7]; more than 100 µM in test [8]; 63.8 µM in [9]; more than 100 µM in [10]; more than 100 µM in test [11]; 78.6 µM in test [12]. The TGI is more than 100 µM in [13]; 83.9 µM in test [14]; 76.9 µM in test [15]; 64.4 µM in test [16]; more than 100 µM in test [17]; more than 100 µM in test [18]. The TGI in [19] is 56.8 µM; in [20], more than 100 µM.

As for `NC(N)=NS(=O)(=O)c1ccc(Nc2c3ccccc3nc3ccc(C(=O)Nc4ccc(S(N)(=O)=O)cc4)cc23)cc1`, the TGI in test [1], in [2], in [3], in test [4], in [5] and in test [6] was more than 100 µM each time. Also, the TGI in [7], in test [8], in test [9], in test [10], in [11] and in test [12] was more than 100 µM throughout. For the same compound, the TGI in test [13], in [14], in [15], in [16], in test [17] and in test [18] was more than 100 µM each time. Moreover, the TGI in test [19] and in test [20] was more than 100 µM each time.

For `CCOc1cc(NC(C)=O)ccc1C(=O)N/N=C/c1ccco1`, the TGI in [1] was more than 100 µM; in test [2], more than 100 µM; in test [3] it was more than 100 µM; in test [4] it was more than 100 µM; in [5], more than 100 µM; in test [6] it was 74.6 µM. Besides, the TGI in test [7], in test [8], in test [9], in test [10], in [11] and in test [12] was more than 100 µM throughout. For the same compound, the TGI in test [13], in test [14], in test [15], in test [16], in [17] and in [18] was more than 100 µM throughout. The TGI in [19] and in [20] was more than 100 µM throughout.

Consider `CCOC(=O)C(Cc1ccc(OC(=O)c2ccc(OC)cc2OC)cc1)NC(=O)C(F)(F)F` (stereo not drawn), for which the TGI in test [1] was 33.1 µM; in [2], 36.2 µM; in test [3], 55.8 µM; in test [4], 29.4 µM; in test [5], more than 100 µM; in test [6] it was more than 100 µM. Also, the TGI in [7] is 59.9 µM; in test [8], more than 100 µM; in [9], 57.5 µM; in test [10], 83.5 µM; in [11] it was 47.4 µM; in test [12], 49.6 µM. Besides, the TGI is 43.9 µM in test [13]; 50.7 µM in test [14]; 79.4 µM in [15]; more than 100 µM in [16]; more than 100 µM in [17]; 51.1 µM in test [18]. The TGI stood at 31.2 µM in test [19] and 41.8 µM in [20].

`CNC(=S)NNC1=NCCCN1`: the TGI in test [1], in test [2], in test [3], in [4], in test [5] and in [6] was more than 100 µM in each case. Besides, the TGI in test [7], in test [8], in test [9], in [10], in test [11] and in test [12] was more than 100 µM throughout. Also, the TGI in test [13], in [14], in [15], in [16], in test [17] and in test [18] was more than 100 µM each time. Besides, the TGI in [19] and in test [20] was more than 100 µM each time.

For the compound `CCOC(=O)N/N=C/C1=NN(C(=O)OCC)S(=O)C1C` (stereo not drawn), the TGI in test [1], in [2], in test [3], in [4], in [5] and in test [6] was more than 100 µM each time. Moreover, the TGI in [7], in test [8], in test [9], in test [10], in test [11] and in [12] was more than 100 µM in each case. In addition, the TGI in [13], in test [14], in test [15], in test [16], in test [17] and in test [18] was more than 100 µM throughout. Moreover, the TGI in test [19] and in test [20] was more than 100 µM throughout.

With `CC(=O)OCC1OC(O[C@@H]2C[C@H]3C(C)(C)[C@H](OC(C)=O)CC[C@]3(C)[C@H]3CC[C@@]45C[C@H](O)C[C@H](C)[C@@H]4CC=C5[C@@]32C)C(O)C(O)C1O` (stereo partly drawn), the TGI in test [1] amounted to 10.9 µM; in test [2], 6.23 µM; in [3], 16.4 µM; in test [4], 17.8 µM; in [5], 11.6 µM; in test [6], 6.33 µM. The TGI in test [7] was 20.3 µM; in [8] it was 7.66 µM; in test [9] it was 5.93 µM; in test [10] it was 18.2 µM; in test [11] it was 11 µM; in test [12], 22 µM. For the same compound, the TGI in [13] came to 3.28 µM; in test [14], 6.02 µM; in test [15], 32.9 µM; in test [16], 12.7 µM; in [17] it was 12.5 µM; in [18], 3.86 µM. In addition, the figures for the TGI in test [19] and in test [20] were 3.72 µM and 9.33 µM, respectively.

In the case of `Cc1cc2c(cc1C)C(=O)c1ncccc1C2=O`, the TGI in [1] is more than 100 µM; in test [2], more than 100 µM; in test [3], more than 100 µM; in [4], 46.3 µM; in test [5], 67.1 µM; in test [6], 74.2 µM. Besides, the TGI in test [7] was 52.9 µM; in test [8], more than 100 µM; in test [9], more than 100 µM; in test [10], more than 100 µM; in test [11], more than 100 µM; in test [12], more than 100 µM. The TGI in test [13] is 82.4 µM; in test [14], more than 100 µM; in test [15], 70.8 µM; in test [16], more than 100 µM; in test [17], more than 100 µM; in test [18], 30.6 µM. Also, the TGI in test [19] and in test [20] was more than 100 µM each time.

Consider `COc1cc(/C=C2/C[C@H]3[C@@H]4CCC5=CC(=O)CC[C@]5(C)[C@H]4CC[C@]3(C)NC2=O)cc(OC)c1OC`, for which the TGI is more than 100 µM in test [1]; 46.7 µM in [2]; more than 100 µM in test [3]; more than 100 µM in test [4]; 83.2 µM in test [5]; more than 100 µM in test [6]. The TGI was 72.2 µM in [7]; more than 100 µM in test [9]; 73.9 µM in test [10]; 88.9 µM in [11]; more than 100 µM in test [12]; 44.4 µM in test [13]. Also, the TGI in test [14] is more than 100 µM; in test [15], more than 100 µM; in [16], 53.7 µM; in [17] it was more than 100 µM; in [18], 45.3 µM; in [19] it was more than 100 µM. In [20], the TGI was determined as 94.7 µM.
